# Measurements taken from patent publication US6727227B1, “Tetrapetide revealing geroprotective effect, pharmacological substance on its basis, and the method of its application” (Obschestvo S Ogranichennoi Otvetstven-Nostiju “Klinika …, priority 2002, dated 2004).
# Residues, ends and D or L forms follow the SMILES beside them.
# Assays:
# Assay type in all cases: in vivo
# [1] = test system: Drosophila melanogaster of HEM strain; assay: Life span and ageing rate, HEM strain; details: for 90% (the age, which 90% of the individuals reach) / ALS (average life span) / MRDT (mortality-rate doubling time) / Me (median life span) / R · 10^−2 (parameter of Gomperz equation): 0.00001% of medium
# Text: L-Ala-L-Glu-L-Asp-Gly tetrapeptide (SEQ ID NO: 1) was applied in Drosophila melanogaster larvae of the 2nd age of HEM strain selected for a high ageing rate (20). HEM strain is characterised by the unique dynamics of embryonic mortality, which consists in an increased frequency of early embryonic lethal outcomes from 65% on the 1st day of egg-laying up to 95% on the 4th day, in a reduced average life span (29 days), and in a raised intensity of lipid peroxide oxidation.
# L-Ala-L-Glu-L-Asp-Gly tetrapeptide (SEQ ID NO: 1) was added in proportion 0.00001% of the culture medium weight, which was an extremely low dose. The doses described in literature on the influence of various substances on Drosophila melanogaster usually ranged from 0.001 to 0.01%.
# rats = assay: Chronic toxicity, 6 months; details: intramuscularly daily during 6 months, 1 μg/kg, 0.1 mg/kg, 1 mg/kg
# Description: The animals were exposed daily to a single administration of the drug intramuscularly in doses 1 μg/kg, 0.1 mg/kg, 1 mg/kg in 0.5 ml of sodium chloride solution during 6 months. Behaviour of the animals, their rations and water consumption, the state of their hair integument and mucous membranes were registered. The animals were weighed daily during the first 3 months of the experiment and then once a month. Haematological and biochemical studies were carried out 3 months after the onset of drug administration and upon experiment completion. Functions of the cardiovascular system, liver, pancreas, kidneys, and adrenal glands were assessed. Upon the end of drug administration some animals were subjected to pathomorphological examination for the purpose of estimating the condition of various sections of the brain and spinal marrow, heart, aorta, lungs, liver, kidneys, organs of the endocrine and immune systems.
# [2] = test system: Drosophila melanogaster of HEM strain; assay: Reproductive function: share of live and fertile cultures, HEM strain; parameters: key to Share of cultures, Live: % of initial test tubes containing live females; key to Share of cultures, Fertile: % of live cultures in which posterity was given; details: for Share of cultures, Fertile / Share of cultures, Live: 0.00001% of medium weight
# Description: Influence of L-Ala-L-Glu-L-Asp-Gly tetrapeptide (SEQ ID NO: 1) upon Drosophila melanogaster was tested at the stage of larvae of the 2nd-3rd age, by means of adding the preparation to culture medium in dose 0.00001% of the medium weight, which approximately made 0.015 mg/100 ml. The flies, hatched on the 1st day, were placed into test tubes, 5 couples in each, and transferred to fresh medium every 3 to 6 days.
# There have been considered the following factors:
# The share of the test tubes (of their initial amount), which contained live females (in Table 3—the share of live cultures).
# The share of the test tubes (of the number of live cultures), in which posterity was given (in Table 3—the share of fertile cultures).
# In each experimental variant 75 parental couples were analysed. The distinctions between fertility indices were defined by means of Fischer exact criterion for 2×2-adjustment tables (24).
compound,measurement,setting,value
"C[C@H](N)C(=O)N[C@@H](CCC(=O)O)C(=O)N[C@@H](CC(=O)O)C(=O)NCC(=O)O [L-Ala-L-Glu-L-Asp-Gly tetrapeptide, L-alanyl-L-glutamyl-L-aspartyl-glycine] (H-AEDG-OH)","90% (the age, which 90% of the individuals reach)",[1]; females,76 days
same,ALS (average life span),[1]; females,48 + days
same,MRDT (mortality-rate doubling time),[1]; females,3.9
same,Me (median life span),[1]; females,48.0 days
same,R · 10^−2 (parameter of Gomperz equation),[1]; females,4.0 + days^−1
same,"90% (the age, which 90% of the individuals reach)",[1]; males,62 days
same,ALS (average life span),[1]; males,42 + 1.3 days
same,MRDT (mortality-rate doubling time),[1]; males,3.8
same,Me (median life span),[1]; males,38.0 days
same,R · 10^−2 (parameter of Gomperz equation),[1]; males,4.5 + days^−1
same,Increase of the average life span,[1]; versus control,26%
same,Reduction of the population real ageing rate (Gomperz parameter),[1]; versus control,40%
same,"Pathologic alterations (general state, blood indices, intrinsic organs, cardiovascular, respiratory, liver, kidney)",rats,no pathologic alterations
same,"Side effects, chronic toxicity",rats,absence of side effects
same,"Coefficient A of lineal regression, fertile culture share on age (y = B + Ax)",[2]; HEM strain,−2.5 ± 0.37
same,"Coefficient A of lineal regression, live culture shares on age (y = B + Ax)",[2]; HEM strain,−1.6 ± 0.17
same,"Coefficient B of lineal regression, fertile culture share on age (y = B + Ax)",[2]; HEM strain,115 ± 11.4
same,"Coefficient B of lineal regression, live culture shares on age (y = B + Ax)",[2]; HEM strain,137 ± 10.6
same,Maximal life span attained,[2]; HEM strain,100 days
same,"“a”-coefficient of fertile-share regression, control higher than experimental variant",[2]; HEM strain,1.8 times
same,Average life span,"[2]; HEM strain, Table 6",54 days
same,Share of live cultures decreases faster than in controls,"[2]; HEM strain, regression analysis",1.5 times
same,Extension of the reproduction period,"[2]; HEM strain, versus control",1.5 fold
same,Duration of the reproductive period,"[2]; HEM strain, 30 days for cultures not exposed",47 days
same,"Share of cultures, Fertile","[2]; day 0, HEM strain",100 + 0.8
same,"Share of cultures, Fertile","[2]; day 6, HEM strain",100 + 0.8
same,"Share of cultures, Fertile","[2]; day 10, HEM strain",93 ± 6.9
same,"Share of cultures, Fertile","[2]; day 13, HEM strain",93 ± 6.9
same,"Share of cultures, Fertile","[2]; day 19, HEM strain",86 ± 9.4
same,"Share of cultures, Fertile","[2]; day 23, HEM strain",43 ± 13.2
same,"Share of cultures, Fertile","[2]; day 27, HEM strain",31 ± 12.9
same,"Share of cultures, Live","[2]; day 27, HEM strain",93 ± 6.9
same,"Share of cultures, Fertile","[2]; day 32, HEM strain",36 ± 14.5
same,"Share of cultures, Live","[2]; day 32, HEM strain",85 ± 10.0
same,"Share of cultures, Fertile","[2]; day 38, HEM strain",9 ± 8.7
same,"Share of cultures, Live","[2]; day 38, HEM strain",85 ± 10.0
same,"Share of cultures, Fertile","[2]; day 44, HEM strain",9 ± 8.7
same,"Share of cultures, Live","[2]; day 44, HEM strain",85 ± 10.0
same,"Share of cultures, Fertile","[2]; day 50, HEM strain",9 ± 8.7
same,"Share of cultures, Live","[2]; day 50, HEM strain",36 ± 12.8
same,"Share of cultures, Fertile","[2]; day 54, HEM strain",0 + 0.9
same,"Share of cultures, Live","[2]; day 54, HEM strain",36 ± 12.8
same,"Share of cultures, Fertile","[2]; day 60, HEM strain",0 + 0.9
same,"Share of cultures, Live","[2]; day 60, HEM strain",29 ± 12.1
same,"Share of cultures, Fertile","[2]; day 66, HEM strain",0 + 0.9
same,"Share of cultures, Live","[2]; day 66, HEM strain",29 ± 12.1
same,"Share of cultures, Fertile","[2]; day 69, HEM strain",0 + 0.9
same,"Share of cultures, Live","[2]; day 69, HEM strain",21 ± 10.9
same,"Share of cultures, Fertile","[2]; day 73, HEM strain",0 + 0.9
same,"Share of cultures, Live","[2]; day 73, HEM strain",7 ± 6.9
same,"Share of cultures, Fertile","[2]; day 76, HEM strain",0 + 0.9
same,"Share of cultures, Live","[2]; day 76, HEM strain",7 ± 6.9
same,"Share of cultures, Fertile","[2]; day 84, HEM strain",0 + 0.9
same,"Share of cultures, Live","[2]; day 84, HEM strain",7 ± 6.9
same,"Share of cultures, Fertile","[2]; day 87, HEM strain",0 + 0.9
same,"Share of cultures, Live","[2]; day 87, HEM strain",7 ± 6.9
same,"Share of cultures, Fertile","[2]; day 100, HEM strain",0 + 0.9
same,"Share of cultures, Live","[2]; day 100, HEM strain",0 + 0.8
